Source: PubChem BioAssay AID434933 (The Scripps Research Institute Molecular Screening Center, 2010)
Where “and” joins values, the source holds several entries; their conditions need not be identical. Equal values may be shown once. Calls of active or inactive are those of the source.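 How the source made its calls: active means compound with HepG2 cell viability IC50 of 10 micromolar or lower; inactive means IC50 above 10 micromolar.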

Tested on: HepG2 viability, CellTiter-Glo ATP luminescence
Experiment: cytotoxicity in HepG2 cells, late-stage follow-up, cytotoxicity control for TPT1 inhibitor project, cell-based, luminescence, dose response (AID 434933)

SMILES | IC50
Cc1cc(C)n(Cc2ccc(C(=O)NN=Cc3ccc(-c4ccc([N+](=O)[O-])cc4)o3)o2)n1 | 72.7 µM (inactive)
OC(Cn1cncn1)(Cn1cncn1)c1ccc(F)cc1F | > 79.4 µM (inactive)
Cc1[nH]n(-c2ccc(S(=O)(=O)O)cc2)c(=O)c1N[N-]c1ccc(C2=CC(=O)/C(=N\[N-]c3ccc4c(S(=O)(=O)O)cc(S(=O)(=O)O)c(N)c4c3O)C=C2)cc1O.[Cu+].[Cu+] | 53.6 µM (inactive)
COc1ccc(OC)c(N2C(=O)/C(=C/c3ccco3)C(=O)NC2=S)c1 | > 79.4 µM (inactive)
NS(=O)(=O)c1cc(C(=O)NC2CCSc3ccccc32)ccc1Cl (stereo not given) | > 79.4 µM (inactive)
CC1=C(C#N)C(=O)N(C2CCS(=O)(=O)C2)C(=O)/C1=C\c1ccco1 (stereo not given) | > 79.4 µM (inactive)
O=c1oc2c(O)c(O)cc3c(=O)oc4c(O)c(O)cc1c4c23 | > 79.4 µM (inactive)
Cc1ccccc1N1C(=O)/C(=C/c2ccco2)C(=O)NC1=S | > 79.4 µM (inactive) and 36.6 µM (inactive)
NC(=O)c1cc[n+](CC2=C(C(=O)O)N3C(=O)[C@@H](NC(=O)C(c4ccccc4)S(=O)(=O)O)[C@H]3SC2)cc1 (stereo not given in full) | > 79.4 µM (inactive)
Cc1ccc(N2C(=O)NC(=O)/C(=C\c3ccc([N+](=O)[O-])o3)C2=O)cc1 | 53.5 µM (inactive)
